Experimental findings from US3991053A are described below.

Converted amounts (≈) assume the structure as drawn.

Experiment [1] has as its system Salmonella choleraesuis. Nature of the experiment: In vivo protection of mice infected intraperitoneally with Salmonella choleraesuis. The note with it: multiple dosing, 25 mg./kg., percentage of animals which survive; for Percentage protection Sal. choleraesuis SC: subcutaneous (SC). The procedure: (§1) In determining the in vivo activity of the compounds of the invention, the test compound is administered to mice which have been infected by intraperitoneal injection of a lethal inoculum of pathogenic bacteria. The test compound is administered using a multiple dosing regimen, using either the oral (PO) or the subcutaneous (SC) route. The inoculum of bacteria varies from one to about ten times the amount needed to kill 100% of the mice, under the conditions of the test. At the end of the test, the activity of a compound is assessed by counting the number of survivors among the treated animals, and expressing the activity of a compound as the percentage of animals which survive. In Table I, in vivo activities of several of the compounds of this invention against Salmonella choleraesuis and Pasteurella multocida are presented. | *The dosage of test compound in the protection studies using Salmonnella | choleraesuis was 25 mg./kg. of body weight, and using Pasteurella | multocida it was 50 mg./kg. of body weight.

The subject of experiment [2] is Pasteurella multocida. Nature of the experiment: In vitro MIC, two-fold serial dilution in Brain-Heart Infusion Broth, Pasteurella multocida. The note with it: read-out: MIC (minimum inhibitory concentration) Past. multocida.
The subject of another experiment is Streptococcus pyogenes. Nature of the experiment: In vitro MIC, two-fold serial dilution in Brain-Heart Infusion Broth, Streptococcus pyogenes. The note with it: read-out: MIC (minimum inhibitory concentration) Strep. pyogenes.
The next experiment deals with Escherichia coli. Nature of the experiment: In vitro MIC, two-fold serial dilution in Brain-Heart Infusion Broth, Escherichia coli. Particulars: read-out: MIC (minimum inhibitory concentration) Esch. coli.
Experiment [3] concerns Salmonella choleraesuis. The experiment can be described thus: In vitro MIC, two-fold serial dilution in Brain-Heart Infusion Broth, Salmonella choleraesuis. The note with it: Salmonella enterica, read-out: MIC (minimum inhibitory concentration) Sal. choleraesuis.
In experiment [4] the test system is Pasteurella multocida. The experiment can be described thus: In vivo protection of mice infected intraperitoneally with Pasteurella multocida. Particulars: multiple dosing, 50 mg./kg., percentage of animals which survive; for Percentage protection Past. multocida SC: subcutaneous (SC). The procedure:
as §1

A further experiment has as its system Treponema hyodysenteriae. Nature of the experiment: In vitro MIC, two-fold serial dilution in Brain-Heart Infusion Broth, Treponema hyodysenteriae. Particulars: Brachyspira hyodysenteriae, read-out: MIC (minimum inhibitory concentration) Trep. hyodysenteriae.

On to `CC1(OCc2ccccc2)OCc2c1[n+]([O-])c1ccccc1[n+]2[O-]` (centres unmarked) [1-Benzyloxy-1-methyl-1,3-dihydrofuro[3,4-b]quinoxaline 4,9-Dioxide], for which the “Percentage protection Sal. choleraesuis PO” value with Salmonella choleraesuis [1] came to 40%. In the experiment on Salmonella choleraesuis [1], the “Percentage protection Sal. choleraesuis SC” value was found to be 60%. Moreover, the MIC in the experiment on Pasteurella multocida [2] is 3.12 µg/mL (≈ 9.62 µM); with Streptococcus pyogenes, 6.25 µg/mL (≈ 19.3 µM); in the experiment with Escherichia coli, 12.5 µg/mL (≈ 38.5 µM); in the experiment with Salmonella choleraesuis [3], 12.5 µg/mL (≈ 38.5 µM).
With `CCOC1(C)OCc2c1[n+]([O-])c1ccccc1[n+]2[O-]` (centres unmarked) [1-Ethoxy-1-methyl-1,3-dihydrofuro[3,4-b]quinoxaline 4,9-Dioxide], the “Percentage protection Sal. choleraesuis PO” value with Salmonella choleraesuis [1] turned out to be 70%. Further, in the experiment on Salmonella choleraesuis [1], the “Percentage protection Sal. choleraesuis SC” value is reported as 50%. The MIC with Pasteurella multocida [2] came to 12.5 µg/mL (≈ 47.7 µM); in the experiment with Streptococcus pyogenes, 3.12 µg/mL (≈ 11.9 µM); in the experiment with Escherichia coli, 12.5 µg/mL (≈ 47.7 µM); in the experiment with Salmonella choleraesuis [3], 12.5 µg/mL (≈ 47.7 µM).
Regarding `CC1(O)OCc2c1[n+]([O-])c1ccccc1[n+]2[O-]` (centres unmarked) [1-Hydroxy-1-methyl-1,3-dihydrofuro[3,4-b]quinoxaline 4,9-dioxide], the “Percentage protection Sal. choleraesuis PO” value with Salmonella choleraesuis [1] is reported as 100%. Moreover, in the experiment on Salmonella choleraesuis [1], the “Percentage protection Sal. choleraesuis SC” value was 100%. Besides, the MIC worked out at 12.5 µg/mL (≈ 53.4 µM) with Pasteurella multocida [2]; 0.78 µg/mL (≈ 3.33 µM) in the experiment on Streptococcus pyogenes; 1.56 µg/mL (≈ 6.66 µM) with Escherichia coli; 1.56 µg/mL (≈ 6.66 µM) in the experiment with Salmonella choleraesuis [3]; 0.09 µg/mL (≈ 0.384 µM) with Treponema hyodysenteriae. Moreover, the “Percentage protection Past. multocida PO” value in the experiment with Pasteurella multocida [4] worked out at 100%. Moreover, in the experiment with Pasteurella multocida [4], the “Percentage protection Past. multocida SC” value was found to be 100%.
For `COC1(C)OCc2c1[n+]([O-])c1ccccc1[n+]2[O-]` (centres unmarked) [1-Methoxy-1-methyl-1,3-dihydrofuro[3,4-b]quinoxaline 4,9-Dioxide], the “Percentage protection Sal. choleraesuis PO” value in the experiment on Salmonella choleraesuis [1] was 100%. Moreover, the “Percentage protection Sal. choleraesuis SC” value in the experiment with Salmonella choleraesuis [1] is 100%. Also, the MIC amounted to 3.12 µg/mL (≈ 12.6 µM) in the experiment with Pasteurella multocida [2], 0.78 µg/mL (≈ 3.14 µM) with Streptococcus pyogenes, 3.12 µg/mL (≈ 12.6 µM) with Escherichia coli and 1.56 µg/mL (≈ 6.28 µM) with Salmonella choleraesuis [3]. Moreover, in the experiment on Pasteurella multocida [4], the “Percentage protection Past. multocida PO” value was 90%. For the same molecule, in the experiment on Pasteurella multocida [4], the “Percentage protection Past. multocida SC” value stood at 100%.
